According to US20130171098A1, “Cyclopropyl Fused Indolobenzazepine HCV NS5B Inhibitors” (priority 2006, published 2013):
Read-outs that look alike come from different tables or passages of the source.

Columns and labels:
[1] = biological target: T1, HCV NS5B RdRp genotype 1b (Hepatitis C virus genotype 1b, UniProt Q9WMX2); experiment: HCV NS5B RdRp enzyme assay (standard / modified); format: biochemical
T1 construct: The protein was expressed with an 18 amino acid C-terminal truncation to enhance the solubility; made in house; host or cells: E. coli BL21(DE3), pET21a vector

[2] = system: HCV replicon cells; experiment: HCV replicon FRET / luciferase assay; format: cell-based, Hepatitis C virus
[3] = HCV NS5B RdRp genotype 1b enzyme
[4] = HCV replicon cells, FRET or luciferase activity

T1 sequence (Q9WMX2 2420-2992): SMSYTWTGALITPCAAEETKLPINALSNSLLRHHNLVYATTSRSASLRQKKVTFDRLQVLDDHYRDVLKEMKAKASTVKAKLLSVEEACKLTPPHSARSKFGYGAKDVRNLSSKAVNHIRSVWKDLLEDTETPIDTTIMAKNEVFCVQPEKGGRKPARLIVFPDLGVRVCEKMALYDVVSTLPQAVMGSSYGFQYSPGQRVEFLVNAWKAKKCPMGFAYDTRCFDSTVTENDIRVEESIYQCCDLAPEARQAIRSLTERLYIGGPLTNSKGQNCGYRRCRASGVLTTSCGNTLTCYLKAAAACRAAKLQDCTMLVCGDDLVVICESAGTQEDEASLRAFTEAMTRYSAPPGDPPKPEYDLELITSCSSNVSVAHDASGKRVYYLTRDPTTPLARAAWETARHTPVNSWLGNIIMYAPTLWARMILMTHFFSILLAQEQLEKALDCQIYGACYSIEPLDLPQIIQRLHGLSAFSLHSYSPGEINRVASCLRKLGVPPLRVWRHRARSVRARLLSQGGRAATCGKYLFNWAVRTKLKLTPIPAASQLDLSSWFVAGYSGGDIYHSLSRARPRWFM

Structure (SMILES)	IC50 [1, 3]	EC50 [2, 4]	IC50 [1]	EC50 ([2]; Hepatitis C virus)
CN1CC2CCC(C1)N2C(=O)C12CC1c1cc(OCc3ccccc3)ccc1-c1c(C3CCCCC3)c3ccc(C(=O)NS(=O)(=O)N(C)C)cc3n1C2 (stereo not drawn) [drawing 69]	1 to 500 nM	1 to 500 nM	–	–
CN1CC2CCC(C1)N2C(=O)C12CC1c1cc(O)ccc1-c1c(C3CCCCC3)c3ccc(C(=O)NS(=O)(=O)N(C)C)cc3n1C2 (stereo not drawn) [drawing 70]	1 to 500 nM	1 to 500 nM	–	–
COc1ccc2c(c1)C1CC1(C(=O)N1C3CCC1CN(C)C3)Cn1c-2c(C2CCCCC2)c2ccc(C(=O)NS(C)(=O)=O)cc21 (stereo not drawn) [drawing 89]	–	–	1 to 500 nM	1 to 500 nM
CN1CC2CCC(C1)N2C(=O)C12CC1c1cc(OC(F)F)ccc1-c1c(C3CCCCC3)c3ccc(C(=O)NS(=O)(=O)N(C)C)cc3n1C2 (stereo not drawn) [drawing 90]	–	–	1 to 500 nM	1 to 500 nM
CCS(=O)(=O)NC(=O)c1ccc2c(C3CCCCC3)c3n(c2c1)CC1(C(=O)N2C4CCC2CN(C)C4)CC1c1cc(OC)ccc1-3 (stereo not drawn) [drawing 91]	–	–	1 to 500 nM	1 to 500 nM
CCN(CC)C(=O)N1CC2CCC(C1)N2C(=O)C12CC1c1cc(OC)ccc1-c1c(C3CCCCC3)c3ccc(C(=O)NS(=O)(=O)C4CC4)cc3n1C2 (stereo not drawn) [drawing 92]	–	–	1 to 500 nM	1 to 500 nM
CCN(CC)C(=O)N1CC2CCC(C1)N2C(=O)C12CC1c1cc(OC)ccc1-c1c(C3CCCCC3)c3ccc(C(=O)NS(=O)(=O)N4CCN(C)CC4)cc3n1C2 (stereo not drawn) [drawing 93]	–	–	1 to 500 nM	1 to 500 nM
COc1ccc2c(c1)C1CC1(C(=O)N1C3CCC1CN(C)C3)Cn1c-2c(C2CCCCC2)c2ccc(C(=O)NS(=O)(=O)N3C[C@@H](C)O[C@@H](C)C3)cc21 (stereo partly drawn) [drawing 94]	–	–	1 to 500 nM	1 to 500 nM
COc1ccc2c(c1)C1CC1(C(=O)N1C3CCC1CN(C)C3)Cn1c-2c(C2CCCCC2)c2ccc(C(=O)NS(=O)(=O)N3CCCCC3)cc21 (stereo not drawn) [drawing 95]	–	–	1 to 500 nM	1 to 500 nM
CCN(C)S(=O)(=O)NC(=O)c1ccc2c(C3CCCCC3)c3n(c2c1)CC1(C(=O)N2C4CCC2CN(C)C4)CC1c1cc(OC)ccc1-3 (stereo not drawn) [drawing 96]	–	–	1 to 500 nM	1 to 500 nM
CCN(CC)S(=O)(=O)NC(=O)c1ccc2c(C3CCCCC3)c3n(c2c1)CC1(C(=O)N2C4CCC2CN(C)C4)CC1c1cc(OC)ccc1-3 (stereo not drawn) [drawing 97]	–	–	1 to 500 nM	1 to 500 nM
COc1ccc2c(c1)C1CC1(C(=O)N1C3CCC1CN(C)C3)Cn1c-2c(C2CCCCC2)c2ccc(C(=O)NS(=O)(=O)N(C)C(C)C)cc21 (stereo not drawn) [drawing 98]	–	–	1 to 500 nM	1 to 500 nM
COc1ccc2c(c1)C1CC1(C(=O)N1C3CCC1CN(C)C3)Cn1c-2c(C2CCCCC2)c2ccc(C(=O)NS(=O)(=O)N(C)C3CC3)cc21 (stereo not drawn) [drawing 99]	–	–	1 to 500 nM	1 to 500 nM
COc1ccc2c(c1)C1CC1C(C(=O)N1C3CCC1CN(C)C3)n1c-2c(C2CCCCC2)c2ccc(C(=O)NS(=O)(=O)C3CC3)cc21 (stereo not drawn) [drawing 100]	–	–	1 to 500 nM	1 to 500 nM
COc1ccc2c(c1)C1CC1(C(=O)N1C3CCC1CN(C)C3)Cn1c-2c(C2CCCCC2)c2ccc(C(=O)NS(=O)(=O)N3CCC3)cc21 (stereo not drawn) [drawing 101]	–	–	1 to 500 nM	1 to 500 nM
COc1ccc2c(c1)C1CC1(C(=O)N1C3CCC1CN(C)C3)Cn1c-2c(C2CCCCC2)c2ccc(C(=O)NS(C)(=O)=O)cc21 (stereo not drawn) [drawing 102]	1 to 500 nM	1 to 500 nM	–	–
CN1CC2CCC(C1)N2C(=O)C12CC1c1cc(OC(F)F)ccc1-c1c(C3CCCCC3)c3ccc(C(=O)NS(=O)(=O)N(C)C)cc3n1C2 (stereo not drawn) [drawing 103]	1 to 500 nM	1 to 500 nM	–	–
CCS(=O)(=O)NC(=O)c1ccc2c(C3CCCCC3)c3n(c2c1)CC1(C(=O)N2C4CCC2CN(C)C4)CC1c1cc(OC)ccc1-3 (stereo not drawn) [drawing 104]	1 to 500 nM	1 to 500 nM	–	–
CCN(CC)C(=O)N1CC2CCC(C1)N2C(=O)C12CC1c1cc(OC)ccc1-c1c(C3CCCCC3)c3ccc(C(=O)NS(=O)(=O)C4CC4)cc3n1C2 (stereo not drawn) [drawing 105]	1 to 500 nM	1 to 500 nM	–	–
CCN(CC)C(=O)N1CC2CCC(C1)N2C(=O)C12CC1c1cc(OC)ccc1-c1c(C3CCCCC3)c3ccc(C(=O)NS(=O)(=O)N4CCN(C)CC4)cc3n1C2 (stereo not drawn) [drawing 106]	1 to 500 nM	1 to 500 nM	–	–
COc1ccc2c(c1)C1CC1(C(=O)N1C3CCC1CN(C)C3)Cn1c-2c(C2CCCCC2)c2ccc(C(=O)NS(=O)(=O)N3C[C@@H](C)O[C@@H](C)C3)cc21 (stereo partly drawn) [drawing 107]	1 to 500 nM	1 to 500 nM	–	–
COc1ccc2c(c1)C1CC1(C(=O)N1C3CCC1CN(C)C3)Cn1c-2c(C2CCCCC2)c2ccc(C(=O)NS(=O)(=O)N3CCCCC3)cc21 (stereo not drawn) [drawing 108]	1 to 500 nM	1 to 500 nM	–	–
CCN(C)S(=O)(=O)NC(=O)c1ccc2c(C3CCCCC3)c3n(c2c1)CC1(C(=O)N2C4CCC2CN(C)C4)CC1c1cc(OC)ccc1-3 (stereo not drawn) [drawing 109]	1 to 500 nM	1 to 500 nM	–	–
CCN(CC)S(=O)(=O)NC(=O)c1ccc2c(C3CCCCC3)c3n(c2c1)CC1(C(=O)N2C4CCC2CN(C)C4)CC1c1cc(OC)ccc1-3 (stereo not drawn) [drawing 110]	1 to 500 nM	1 to 500 nM	–	–
COc1ccc2c(c1)C1CC1(C(=O)N1C3CCC1CN(C)C3)Cn1c-2c(C2CCCCC2)c2ccc(C(=O)NS(=O)(=O)N(C)C(C)C)cc21 (stereo not drawn) [drawing 111]	1 to 500 nM	1 to 500 nM	–	–
COc1ccc2c(c1)C1CC1(C(=O)N1C3CCC1CN(C)C3)Cn1c-2c(C2CCCCC2)c2ccc(C(=O)NS(=O)(=O)N(C)C3CC3)cc21 (stereo not drawn) [drawing 112]	1 to 500 nM	1 to 500 nM	–	–
COc1ccc2c(c1)C1CC1C(C(=O)N1C3CCC1CN(C)C3)n1c-2c(C2CCCCC2)c2ccc(C(=O)NS(=O)(=O)C3CC3)cc21 (stereo not drawn) [drawing 113]	1 to 500 nM	1 to 500 nM	–	–
COc1ccc2c(c1)C1CC1(C(=O)N1C3CCC1CN(C)C3)Cn1c-2c(C2CCCCC2)c2ccc(C(=O)NS(C)(=O)=O)cc21 (stereo not drawn) [drawing 114]	1 to 500 nM	1 to 500 nM	–	–
CCC(C)S(=O)(=O)NC(=O)c1ccc2c(C3CCCCC3)c3n(c2c1)C[C@@]1(C(=O)N2C4CCC2CN(C)C4)C[C@H]1c1cc(OC)ccc1-3 (stereo partly drawn) [drawing 132]	–	–	1 to 500 nM	1 to 500 nM
CCC(C)S(=O)(=O)NC(=O)c1ccc2c(C3CCCCC3)c3n(c2c1)C[C@@]1(C(=O)N2C4CCC2CN(C)C4)C[C@H]1c1cc(OC)ccc1-3 (stereo partly drawn) [drawing 133]	1 to 500 nM	1 to 500 nM	–	–
